From patent US11400072B2, “Methods for the treatment of nonalcoholic fatty liver disease and/or lipodystrophy” (Coherus Biosciences, Inc., priority 2015, dated 2022)

Tested on: obese patients with NASH
Test: 48 week double blind, placebo controlled, randomized, parallel group study of INT131 on hepatic histology of obese patients with NASH
Assay type: in vivo, human
Conditions: subjects receiving either 1.25 or 2 mg of INT131 once per day
Description: A 48 week double blind, placebo controlled, randomized, parallel group study will be conducted to evaluate the effect of INT131 on hepatic histology of obese patients with NASH. Specifically, at least 225 subjects are chosen that fit the following criteria: (1) age 18 to 75 years old; (2) body mass index (BMI) greater than 25 kg/m^2 and less than 40 kg/m^2; (3) NAFLD fibrosis score greater than or equal to 1.0 and less than 4.0; (4) average daily alcohol consumption of 10 g/day or less; (5) NAFLD activity score (“NAS”) of 3 or greater; (6) histologically proven steatohepatitis on a diagnostic liver biopsy performed within 6 months of randomization, confirmed central laboratory reading of slides (steatosis >5% lobular inflammation, any amount of ballooning); (7) women who meet the following criteria: women of childbearing potential with a negative urine pregnancy test at Screening who agree to use 1 or more approved methods of birth control during the study. Approved methods of birth control are: hormonal contraception, intrauterine device, diaphragm plus spermicide, female condom plus spermicide. […]

[1] = week 0 compared to week 48, statistically significant versus placebo group

## O=S(=O)(Nc1cc(Cl)c(Oc2cnc3ccccc3c2)c(Cl)c1)c1ccc(Cl)cc1Cl [INT131, 2,4-Dichloro-N-[3,5-dichloro-4-(3-quinolinyloxy)phenyl]benzenesulfonamide]
  liver function test(s): improvement
  most if not all other metabolic parameters outlined above: improvement
[1]
  NAS (NAFLD activity score): reduction
  ballooning grade: reduction
  fibrosis stage: reduction
  portal and lobular inflammation grade: reduction
  steatosis grade: reduction
